Laboratory results as given in publication PMC8582824, “Targeting DDX3X Helicase Activity with BA103 Shows Promising Therapeutic Effects in Preclinical Glioblastoma Models” (Cancers, 2021).
Like-named read-outs stand apart in the source and are kept apart here.

Assays:
[1] = PK and biodistribution in BALB/c mice; type: in vivo; conditions: for half-life: 50 mg/kg
Protocol: Figure 8 PK and biodistribution of BA103 in BALB/c mice at the single dose of 50 mg/kg i.p. (A) Plasmatic distribution and PK parameters. Concentration levels ± SD of BA103 in (B) kidneys, (C) liver, and (D) brain. TEXT PRINTED IN THE PICTURE: (A) no label printed: t1/2 (min): 299.6; Cmax (μg/ml): 18.2; AUC 0-t (μg/ml*min): 1817.6; AUC 0-inf_obs (μg/ml*min): 1850.7; Vz/F_obs ((mg/kg)/(μg/ml)): 11.7; Cl/F_obs ((mg/kg)/(μg/ml)/min): 0.1 DOUBTS OF THE COPYIST ABOUT THIS PICTURE: Panel A table: the picture prints no substance label / Panel A table, Vz/F_obs and Cl/F_obs: the underscore may be hidden by the table line (could be 'Vz/F obs', 'Cl/F obs')
Thus, preliminary PK and biodistribution studies were performed on two groups of BALB/c mice (CTRL and BA103-treated) at the single intraperitoneal (i.p.) dose of 50 mg/kg. BA103 was slowly eliminated from plasma, with a half time (t1/2) of about 5 h. […] Even if the PK analysis was conducted in healthy mice, with an intact BBB, the data are of great importance, since the majority of drugs are unable to reach the tumor environment due to their low permeability.

[2] = test system: U87 cells intracerebral xenograft; assay: Orthotopic U87 xenograft model of GBM; type: in vivo, CD1 nude mice; conditions: 50 mg/kg i.p., three times per week for three weeks, observed two months
Protocol: In CD1 nude mice, 3 × 10^3 U87 cells were injecting intracerebrally using a stereotactic frame (Stoelting Europe, Dublin, Ireland). Optimization of the protocol for treatment procedures was based on previously published data performed in the same experimental in vivo model. A volume of 3 μL was inoculated by a sterile Hamilton syringe with a 26-gauge needle inserted at a depth of 3.0 mm from the skull surface. Five days after injection, animals were randomized to control and treated groups. […] For in vivo administration, BA103 was administered i.p. in a saline solution containing 10% v/v DMSO and 10% v/v TWEEN 80. Each mouse received 50 mg/kg BA103, or vehicle, three times per week.
Figure 9 Biological activity of BA103 in xenograft models of GBM. (A–D) Mice were inoculated s.c. with U87 cells, randomly distributed in two groups (CTR and BA103), and treated according to the protocol shown in panel (A). Tumor growth was monitored by measuring tumor volume (B), and at the end point, tumors were weighed, and the resulting mean values for each group are reported in the histogram (C). Recovered tumor masses were processed for analysis of DDX3X expression by immunohistochemistry, and representative images acquired at 400× magnification are shown in panel (D). (E) Survival curve from in vivo orthotopic model of GBM. […] Mice were monitored for two months after U87 cells inoculation. […]

β-catenin = β-catenin expression by Western blot and immunofluorescence; type: cell-based; conditions: U87 and U251 cells, 48 h
Protocol: Cells were incubated for 15 min in lysis buffer containing 1% triton, 0.1% SDS, 2 mmol/L CaCl2, 10 mg/mL orthovanadate, and 1× protease inhibitors cocktail (Sigma-Aldrich, St. Louis, MO, USA). Forty micrograms of proteins were electrophoresed in 12% SDS-polyacrylamide gel, and then, the gel was placed onto a Trans-Blot Turbo mini nitrocellulose transfer pack and transferred using a Trans-Blot Turbo Transfer System (Bio-Rad Laboratories, Hercules, CA, USA). The membrane was incubated with […] primary antibody and then with […] horseradish peroxidase (HRP)-conjugated secondary antibodies (Santa Cruz Biotechnology, Dallas, TX, USA). […]
Cells grown on coverslips (2 × 10^4 cells/cm^2) were fixed in 4% w/v paraformaldehyde in PBS for 10 min at RT and permeabilized in PBS containing 0.1% v/v Triton X-100 for 5 min at RT. […] After extensive washings, cells were mounted with ProLong Gold antifade mounting medium (Life Technologies Corporation, Carlsbad, CA, USA) and observed by a fluorescence microscope equipped with a digital camera (AXIOPHOT, Carl Zeiss, Oberkochen, Germany).
To better characterize the antiproliferative effect of BA103, we performed further biological evaluation using GBM cell lines. The expression of DDX3X was evaluated in U87 and U251 cell lines by Western blot analysis in comparison with HepG2 cells, resulting in basally detectable mainly in U87 cells (Figure 6A). […]

[3] = BALB/c, mouse, ip, plasma, single dose 50 mg/kg i.p.

Question: Which AUC(0-t) [1, 3] does the source give for CCCCc1cn(-c2ccc(NC(=O)Nc3ccccc3C(F)(F)F)cc2)nn1 [BA103, 1-(4-(4-Butyl-1H-1,2,3-triazol-1-yl)phenyl)-3-(2-(trifluoromethyl)phenyl)urea] here?
Answer: 30300 ng·h/mL

Question: What about the Cmax [1, 3] of the same compound?
Answer: 18200 ng/mL

Question: What about the AUC(0-inf) ([1]; BALB/c, mouse, ip, plasma, single dose 50 mg/kg i.p., read-out: AUC 0-inf_obs (converted)) of the same compound?
Answer: 30800 ng·h/mL

Question: What about the half-life ([1]; BALB/c, mouse, plasma, ip, plasma, single dose 50 mg/kg i.p., read-out: t1/2) of the same compound?
Answer: 4.99 h

Question: What about the half-life ([1]; BALB/c, mouse, plasma, ip, single dose 50 mg/kg i.p., read-out: half time (t1/2) of elimination from plasma (converted)) of the same compound?
Answer: ~5 h

Question: And the CL/F ([1]; BALB/c, mouse, plasma, ip, single dose 50 mg/kg i.p.)?
Answer: 100 mL/min/kg

Question: And the Vd/F ([1]; BALB/c, mouse, plasma, ip, single dose 50 mg/kg i.p., read-out: Vz/F_obs)?
Answer: 11.7 L/kg

Question: And the “brain distribution / blood–brain barrier crossing” value ([1]; healthy mice, 50 mg/kg i.p.)?
Answer: ability to cross the blood–brain barrier

Question: What about the “mice alive at the endpoint” value [2] of the same compound?
Answer: seven out of eight

Question: And the “expression of β-catenin” value (β-catenin)?
Answer: reduction in the expression of β-catenin
